PubChem BioAssay (NCI)
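Compound exposure: 48 hours, 5 concentrations, 96-well plates. The concentration for 50% growth inhibition is given as GI50. At the TGI there is no net growth.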

Experiments:
Assay in all cases: inhibition of tumour cell growth, NCI panel, 48 h
BT-549 breast = test system: BT-549 breast
HOP-92 NSCLC = test system: HOP-92 NSCLC
HS 578T breast = test system: HS 578T breast
NCI-H226 lung = test system: NCI-H226 lung
OVCAR-3 ovarian = test system: OVCAR-3 ovarian
PC-3 prostate = test system: PC-3 prostate
SK-MEL-2 melanoma = test system: SK-MEL-2 melanoma
DLD-1 colon = test system: DLD-1 colon
DMS 273 small cell lung = test system: DMS 273 small cell lung
LXFL 529 NSCLC = test system: LXFL 529 NSCLC

SMILES: O=C1c2cccc(NCCN=Cc3cc(O)ccc3O)c2C(=O)c2c(NCCN=Cc3cc(O)ccc3O)cccc21
- GI50 (BT-549 breast): 1.89 µM
- TGI (BT-549 breast): 7.77 µM
- GI50 (HOP-92 NSCLC): 1.29 µM
- TGI (HOP-92 NSCLC): 4.87 µM
- GI50 (HS 578T breast): 1.03 µM
- TGI (HS 578T breast): 3.78 µM
- GI50 (NCI-H226 lung): 1.21 µM
- TGI (NCI-H226 lung): 3.62 µM
- GI50 (OVCAR-3 ovarian): 1.63 µM
- TGI (OVCAR-3 ovarian): 4.28 µM
- GI50 (PC-3 prostate): 1.17 µM
- TGI (PC-3 prostate): 3.97 µM
- GI50 (SK-MEL-2 melanoma): 2.02 µM
- TGI (SK-MEL-2 melanoma): 3.91 µM

SMILES: Cc1ccc(S(=O)(=O)N(CCOc2ccc(/C(N)=N/Cl)cc2)CCOc2ccc(/C(N)=N\Cl)cc2)cc1
- GI50 (BT-549 breast): 14.1 µM
- TGI (BT-549 breast): 36.6 µM
- GI50 (HOP-92 NSCLC): 17.2 µM
- TGI (HOP-92 NSCLC): 89.3 µM
- GI50 (HS 578T breast): 4.28 µM
- TGI (HS 578T breast): 22.7 µM
- GI50 (NCI-H226 lung): 59.6 µM
- TGI (NCI-H226 lung): > 100 µM
- GI50 (OVCAR-3 ovarian): 5.99 µM
- TGI (OVCAR-3 ovarian): 31 µM
- GI50 (PC-3 prostate): 33.7 µM
- TGI (PC-3 prostate): > 100 µM
- GI50 (SK-MEL-2 melanoma): > 100 µM
- TGI (SK-MEL-2 melanoma): > 100 µM

SMILES: O=C(CN1CCOCC1)Nc1ccc(Cn2nnc3c2C(=O)c2nnn(Cc4ccc(NC(=O)CN5CCOCC5)cc4)c2C3=O)cc1
- GI50 (BT-549 breast): 1.46 µM
- TGI (BT-549 breast): 2.83 µM
- GI50 (HOP-92 NSCLC): 0.822 µM
- TGI (HOP-92 NSCLC): 2.34 µM
- GI50 (HS 578T breast): 1.94 µM
- TGI (HS 578T breast): 8.34 µM
- GI50 (NCI-H226 lung): 1.54 µM
- TGI (NCI-H226 lung): 3.93 µM
- GI50 (OVCAR-3 ovarian): 0.25 µM
- TGI (OVCAR-3 ovarian): 0.836 µM
- GI50 (PC-3 prostate): 0.644 µM
- TGI (PC-3 prostate): 5.63 µM
- GI50 (SK-MEL-2 melanoma): 0.438 µM
- TGI (SK-MEL-2 melanoma): 1.72 µM

SMILES: CN(C)CCNc1cc(-c2ccccc2)nc2ccccc12
- GI50 (BT-549 breast): 11.5 µM
- TGI (BT-549 breast): 28.8 µM
- GI50 (HOP-92 NSCLC): 3.21 µM
- TGI (HOP-92 NSCLC): 21.3 µM
- GI50 (HS 578T breast): 12 µM
- TGI (HS 578T breast): 37.1 µM
- GI50 (NCI-H226 lung): 5.98 µM
- TGI (NCI-H226 lung): 30.2 µM
- GI50 (OVCAR-3 ovarian): 8.9 µM
- TGI (OVCAR-3 ovarian): 33.1 µM
- GI50 (PC-3 prostate): 4.61 µM
- TGI (PC-3 prostate): 24.9 µM
- GI50 (SK-MEL-2 melanoma): 11.3 µM
- TGI (SK-MEL-2 melanoma): 24.9 µM

SMILES: O=C1/C(=C/c2ccc(Br)cc2)C=C(c2ccccc2)N1CCc1ccccc1
- GI50 (BT-549 breast): 2.59 µM
- TGI (BT-549 breast): 9.06 µM
- GI50 (HOP-92 NSCLC): 0.32 µM
- TGI (HOP-92 NSCLC): 2.63 µM
- GI50 (HS 578T breast): 0.831 µM
- TGI (HS 578T breast): 5.33 µM
- GI50 (NCI-H226 lung): 1.11 µM
- TGI (NCI-H226 lung): 4.57 µM
- GI50 (OVCAR-3 ovarian): 1.78 µM
- TGI (OVCAR-3 ovarian): 7.34 µM
- GI50 (PC-3 prostate): 1.2 µM
- TGI (PC-3 prostate): 5.06 µM
- GI50 (SK-MEL-2 melanoma): 4.47 µM
- TGI (SK-MEL-2 melanoma): 27.2 µM

SMILES: CC1(Cl)C(=O)NC(=O)N(C2CC(N=[N+]=[N-])C(CO)O2)C1N=[N+]=[N-] (stereo not given)
- TGI (DLD-1 colon): > 100 µM
- TGI (DMS 273 small cell lung): > 100 µM
- TGI (HOP-92 NSCLC): > 100 µM
- TGI (LXFL 529 NSCLC): > 100 µM
- TGI (OVCAR-3 ovarian): > 100 µM
- TGI (SK-MEL-2 melanoma): > 100 µM

SMILES: COc1cc(C2c3cc4c(cc3C(NCC(O)CO)C3COC(=O)[C@H]23)OCO4)cc(OC)c1OC (stereo not given in full)
- TGI (DLD-1 colon): > 100 µM
- TGI (LXFL 529 NSCLC): > 100 µM
- TGI (NCI-H226 lung): 0.655 µM

SMILES: COc1ccc2cc1Oc1ccc(cc1)CC1c3cc(c(OC)cc3CCN1C)Oc1c3c(cc4c1C(C2)N(C)CC4)OCO3 (stereo not given)
- TGI (DLD-1 colon): 31.5 µM
- TGI (DMS 273 small cell lung): 17.2 µM
- TGI (LXFL 529 NSCLC): 25.6 µM
- TGI (NCI-H226 lung): 7.45 µM
- TGI (OVCAR-3 ovarian): 30 µM
- TGI (SK-MEL-2 melanoma): 15.8 µM

SMILES: CC1CCC2(C(=O)O)CCC3(C)C(=CCC4C5(C)CC(O)C(O)C(C)(CO)C5C(O)CC43C)C2C1C (stereo not given)
- TGI (BT-549 breast): > 93.5 µM
- TGI (HOP-92 NSCLC): 46.3 µM
- TGI (HS 578T breast): 41.5 µM
- TGI (NCI-H226 lung): > 100 µM
- TGI (OVCAR-3 ovarian): 50.8 µM
- TGI (PC-3 prostate): > 100 µM
- TGI (SK-MEL-2 melanoma): 36.6 µM

SMILES: COC(=O)C1=C(C(=O)OC)C2C=CC1C1C(Cl)=C(Cl)C21 (stereo not given)
- TGI (DLD-1 colon): > 100 µM
- TGI (DMS 273 small cell lung): > 100 µM
- TGI (HOP-92 NSCLC): > 100 µM
- TGI (LXFL 529 NSCLC): > 100 µM
- TGI (OVCAR-3 ovarian): > 100 µM
- TGI (SK-MEL-2 melanoma): > 100 µM

SMILES: N#Cc1ccc(C#Cc2ccccc2C#CCCCCO)cc1
- GI50 (BT-549 breast): 14.7 µM
- TGI (BT-549 breast): 29.3 µM
- GI50 (HOP-92 NSCLC): 17.7 µM
- TGI (HOP-92 NSCLC): 34.6 µM
- GI50 (HS 578T breast): 25.7 µM
- TGI (HS 578T breast): 64.2 µM
- GI50 (NCI-H226 lung): 20.9 µM
- TGI (NCI-H226 lung): 38.6 µM
- GI50 (OVCAR-3 ovarian): 19.9 µM
- TGI (OVCAR-3 ovarian): 39.6 µM
- GI50 (PC-3 prostate): 15.6 µM
- TGI (PC-3 prostate): 28.9 µM
- GI50 (SK-MEL-2 melanoma): 17.1 µM
- TGI (SK-MEL-2 melanoma): 36.4 µM

SMILES: CC1OC(O[C@H]2C[C@@H](O)[C@]3(CO)[C@H]4[C@H](O)C[C@]5(C)[C@@H](C6=CC(=O)OC6)CC[C@]5(O)[C@@H]4CC[C@]3(O)C2)C(O)C(O)C1O (stereo not given in full)
- GI50 (BT-549 breast): 18 µM
- TGI (BT-549 breast): 32.7 µM
- GI50 (HOP-92 NSCLC): 24.4 µM
- TGI (HOP-92 NSCLC): 57.6 µM
- GI50 (HS 578T breast): 25.6 µM
- TGI (HS 578T breast): 65.9 µM
- GI50 (NCI-H226 lung): 22.7 µM
- TGI (NCI-H226 lung): 52 µM
- GI50 (OVCAR-3 ovarian): 19.8 µM
- TGI (OVCAR-3 ovarian): 40.7 µM
- GI50 (PC-3 prostate): 20.4 µM
- TGI (PC-3 prostate): 41.4 µM
- GI50 (SK-MEL-2 melanoma): 20.2 µM
- TGI (SK-MEL-2 melanoma): 44.8 µM

SMILES: Cn1c(N2NC(=O)C(N=Nc3ccc(S(N)(=O)=O)cc3)C2=O)nc(-c2ccco2)c(C#N)c1=O (stereo not given)
- GI50 (BT-549 breast): 8.67 µM
- TGI (BT-549 breast): 40.6 µM
- GI50 (HOP-92 NSCLC): 25.5 µM
- TGI (HOP-92 NSCLC): > 50 µM
- GI50 (HS 578T breast): 9.85 µM
- TGI (HS 578T breast): 38.6 µM
- GI50 (NCI-H226 lung): > 50 µM
- TGI (NCI-H226 lung): > 50 µM
- GI50 (OVCAR-3 ovarian): 13.4 µM
- TGI (OVCAR-3 ovarian): > 50 µM
- GI50 (PC-3 prostate): 23.2 µM
- TGI (PC-3 prostate): > 50 µM
- GI50 (SK-MEL-2 melanoma): > 50 µM
- TGI (SK-MEL-2 melanoma): > 50 µM
